From patent US20250256096A1 (priority 2022, published 2025)
Where “and” joins values, the source holds several entries; their conditions need not be identical. Equal values may be shown once. Read-outs that look alike come from different tables or passages of the source.

Test system: cervical vagus nerve
Format: in vivo, Adult male Lewis rats
Settings: for vagal nerve activity as detected by spike count analysis of electroneurograms: application directly to the cervical vagus nerve; for vagal nerve activity as detected by spike count analysis of electroneurograms / nerve firing of the main cervical vagus nerve: result in words; for nerve firing of the main cervical vagus nerve: intradermal application to trigeminal dermatomes on the forehead
[1] = intradermal application on forehead near trigeminal nerve endings, high (100 nM) concentration, mean +/- SEM

Molecule | vagal nerve activity as detected by spike count analysis of electroneurograms | cervical vagus nerve average spike count (high (100 nM) concentration applied directly on the cervical vagus nerve, mean +/- SEM) | cervical vagus nerve average spike count [1] | nerve firing of the main cervical vagus nerve | cervical vagus nerve average spike count (low (10 nM) concentration applied directly on the cervical vagus nerve, mean +/- SEM, POST 60-s segment) | cervical vagus nerve average spike count (intradermal application on forehead near trigeminal nerve endings, low (10 nM) concentration, mean +/- SEM) | effect on spike count (low (10 nM) or high (100 nM) concentrations directly on the cervical vagus nerve, data not shown) | cervical vagus nerve average spike count (rat, in vivo)
COc1cc(CNC(=O)CCCC/C=C/C(C)C)ccc1O [Capsaicin, capsaicin] | increased | 14.5+/−0.7 spikes/second | 13.5+/−0.5 spikes/second | activated | 7.6+/−0.7 spikes/second |  |  | 
CC(C)C[C@H](NC(=O)c1cc2ccccc2s1)C(=O)N1CCN(C(=O)[C@H](CO)NS(=O)(=O)c2ccc(Cl)cc2Cl)CC1 [GSK1016790A] | increased |  | 13.8+/−1.0 spikes/second | activated |  | 7.0+/−0.5 spikes/second | no effect | 
WS-12 | increased |  |  | activated |  |  |  | 
capsaicin |  |  |  |  |  |  |  | 11.2+/−0.6 spikes/second and 17.7+/−0.8 spikes/second and 9.6+/−0.5 spikes/second
